These results are taken from patent US10308911B2, “Methods for generating the inner ear and other cranial placode-derived tissues using pluripotent stem cells” (Indiana University Research & Technology Corporation, priority 2012, dated 2019).

Holding throughout (assay type): cell-based, mouse
Assay [1] deals with ESC aggregates. Nature of the assay: Otic placode and otic vesicle induction (Pax2/Pax8/Ecad expression, vesicle counts). The method, then:
On day 8 of differentiation, cell aggregates are transferred to 24 well plates (Lipidure Coat, NOF; 4-8 aggregates per well) in N2 Medium containing 1% MATRIGEL™ (a gelatinous protein mixture secreted by Engelbreth-Holm-Swarm (EHS) mouse sarcoma cells) (v/v). N2 Medium contains Advanced DMEM/F12, 1×N2 Supplement, 1 mM Penicillin/Streptomycin or 50 μg/mL Normocin (Invivogen) and 1 mM GlutaMax.
(§1) The following small molecules and recombinant proteins were used: recombinant human BMP4 (10 ng/mL; Stemgent), human FGF2 (25 ng/mL; Peprotech), XAV939 (1 μM; Santa Cruz), SU5402 (10 μM; BioVision), SB-431542 (1 μM; Tocris Bioscience), and LDN-193189 (100 nM; Stemgent).
(§2) RNA was isolated using the RNeasy Minikit (Qiagen) and treated with TURBO DNase (Ambion). Single-stranded cDNA was synthesized using Omniscript reverse transcriptase (Qiagen) and Oligo-dT primers. All amplicons had standardized sizes of 100-110 bps. cDNA samples were amplified on an ABI PRISM 7900HT Sequence Detection System (Applied Biosystems) using the SYBR Green PCR Master Mix (Applied Biosystems). For each PCR reaction, a mixture containing cDNA template (5 ng), Master Mix, and forward and reverse primers (400 nM each) was treated with uracil N-glycosylase at 50° C. for 2 min before undergoing the following program: 1 cycles, 95° C., 10 min; 45 cycles, 95° C., 15 sec, 60° C., 1 min; 1 cycles, 95° C., 15 sec, 60° C., 15 sec, 95° C., 15 sec; 72° C., hold. Melting curve analysis was performed to confirm the authenticity of the PCR product. The mRNA level for each gene was calculated relative to L27 mRNA expression.
The percentage of epithelial cells expressing Pax8/Ecad was established by analyzing serial sections of day 6 and 8 aggregates. Data are representative of 6-8 aggregates from at least 3 separate experiments. For analysis of each aggregate, 5 cryosections were chosen at random positions along the z-axis of the aggregate. Using Nikon Elements or NIH ImageJ software, the Ecad^+ outer-epithelium was outlined and cell counting of DAPI and Pax8^+ nuclei along the length of the epithelium established a percentage for each cryosection.
Similarly, the number of Myo7a^+ hair cells in each day 20 aggregate was determined by analyzing 10 μm serial cryosections. Each biological sample represents the average number of hair cells counted in 4-6 cell aggregates and data are representative of the average from 3 separate experiments (15 aggregates total for each condition). Odd and even numbered cryosections were analyzed separately and averaged to avoid double counting. The number of vesicles was quantified similarly, but every third section was analyzed to avoid double counting and allow for analysis of three separate staining combinations. Vesicles with a long axis diameter larger than 30 μm were accounted for to avoid double counting.

Assay [2] deals with ESC aggregates. Nature of the assay: Pre-placodal ectoderm induction in BMP/SB aggregates (marker expression, epithelial thickness). The method, then:
On day 4-5, the differentiation medium is replaced with differentiation medium containing FGF2 in a final concentration range of about 5 ng/ml to about 100 ng/ml (with a preferred final concentration of about 25 ng/mL) or another FGF selected from FGF 1-FGF23), and a BMP inhibitor. In some embodiments, the BMP inhibitor is LDN-193189 (CAS No. 1062368-24-4 at about 100 nM). Alternatively, DMH1 (CAS No. 1206711-16-1) or Dorsomorphin (CAS No. […]) can be used as the BMP inhibitor were added to each well at 6× concentration in 25 μL of fresh media. The extracellular matrix protein concentration (e.g., MATRIGEL™ (a gelatinous protein mixture secreted by Engelbreth-Holm-Swarm (EHS) mouse sarcoma cells) at 2% (v/v)) is maintained throughout days 1-8. Culture of the non-neural ectoderm cells under these conditions yields preplacodal ectoderm, epithelium characterized by expression of at least one of Dlx3, Dlx5, Pax2, Pax8 and Eya1. The concentration of MATRIGEL™ (a gelatinous protein mixture secreted by Engelbreth-Holm-Swarm (EHS) mouse sarcoma cells) or another extracellular matrix protein, as mentioned herein, is maintained at 2% (v/v) throughout days 1-8.
as §1, §2
Aggregates were fixed with 4% paraformaldehyde. […]
The apparent thickness of epithelia was determined by analyzing cryosections stained with Ncad (Control) or Ecad antibodies (all other conditions) on days 3-6. […] For each aggregate, 3 serial sections were analyzed. Five points along the epithelium were randomly chosen and the thickness was measured using Nikon Elements image analysis tools.

The test system of assay [3] is ESC aggregates. Nature of the assay: Non-neural ectoderm induction in SFEBq 3D culture (qPCR, immunostaining). How it is done:
In an exemplary embodiment using mES cells, during days 0-3, serum-free floating culture of embryoid body-like aggregate with quick reaggregation (SFEBq) to generate EBs is initiated by dissociation of adherent mES cells into a cell suspension by trypsinization (e.g., with 0.25% Trypsin-EDTA, and resuspended in “Differentiation Medium”. Differentiation Medium is composed of Glasgow Minimal Essential Medium (G-MEM) supplemented with 1.5% knockout serum replacement (KSR; Invitrogen), 0.1 mM non-essential amino acids, 1 mM sodium pyruvate, 1 mM Penicillin/Streptomycin and 1 mM 2-mercaptoethanol. Cells are then plated in 100 μl/well in a range of about 1,000-15,000 cells, but preferably about 3000 cells, a in 96-well low cell adhesion U-bottom plates. On day 1, half of the medium in each well is exchanged for fresh Differentiation Medium containing an extracellular matrix protein, e.g., MATRIGEL™ (a gelatinous protein mixture secreted by Engelbreth-Holm-Swarm (EHS) mouse sarcoma cells) (2% v/v final concentration), laminin (50-400 μg/ml), or laminin plus entactin (50-400 μg/ml each).
On day 3 after initiating formation of EBs, a BMP, e.g., BMP2, BMP4, or BMP7 and a TGFβ inhibitor are added to the culture medium. The concentration of BMP, e.g., BMP4, to be used in the method can range from at least about 1 ng/ml to about 50 ng/ml, e.g., about 2 ng/ml, 4 ng/ml, 5 ng/ml, 7 ng/ml, 12 ng/ml, 15 ng/ml, 20 ng/ml, 25 ng/ml, 32 ng/ml, 40 ng/ml, or another concentration of a BMP from at least about 1 ng/ml to about 50 ng/ml. In some embodiments, the BMP to be used is BMP4 at a concentration of about 10 ng/ml. BMP 4. In some embodiments, the TGFβ inhibitor to be used is SB 431542 (CAS No. 301836-41-9, at a final concentration of about 1 μM). Alternatively, any of the following TGFβ inhibitors may be used: A 83-01 (CAS No. 909910-43-6), GW 788388 (CAS No. 452342-67-5), LY 364947 (CAS No. 396129-53-6), RepSox (CAS No. 446859-33-2), SB 505124 (CAS No. 694433-59-5), SB 525334 (CAS No. 356559-20-1), or SD 208 (CAS No. […]) at a concentration of about 0.1 μM to about 5 μM.
as §1
RNA was isolated using the RNeasy Minikit (Qiagen) and treated with TURBO DNase (Ambion). Single-stranded cDNA was synthesized using Omniscript reverse transcriptase (Qiagen) and Oligo-dT primers. […] The mRNA level for each gene was calculated relative to L27 mRNA expression. […]

The mark [4] stands for this setting: qPCR of day 5 samples, 10 ng/mL BMP vs vehicle control.

Entries after “also recorded” stand apart in the source; their conditions may differ.

Turning to `Cc1c[nH]c(-c2cnc(NCCNc3ccc(C#N)cn3)nc2-c2ccc(Cl)cc2Cl)n1` [CHIR99021], the “abundance of Pax2/Ecad+ vesicles with a luminal diameter greater than 50 μm (large vesicles)” value in the assay on ESC aggregates [1] (CHIR99021 3 μM days 8-10, read on day 12) is reported as “higher abundance”.
As to `c1ccc2c(-c3cnn4cc(-c5ccc(N6CCNCC6)cc5)cnc34)ccnc2c1` [LDN, LDN-193189], the “Sox1 expression after LDN treatment” value in the assay with ESC aggregates [2] (BMP/SB aggregates) was “does not induce”. In addition, in the assay on ESC aggregates [2] (LDN treatment on day 4.5), the “Dlx3 expression in BMP/SB aggregates after BMP inhibition” value is “maintained expression of Dlx3”. The “Dlx3 expression after LDN treatment” value in the assay on ESC aggregates [2] (treatment on or before day 4) is “suppresses”.
For the molecule `NC(=O)c1ccc(-c2nc(-c3ccc4c(c3)OCO4)c(-c3ccccn3)[nH]2)cc1` [SB, SB-431542], in the assay on ESC aggregates [3] (SB added to BMP, n=3), the “level of brachyury expression induced by BMP” value is recorded as “decreases”.
For `Cc1c[nH]c(/C=C2\C(=O)Nc3ccccc32)c1CCC(=O)O` [SU5402], in the assay on ESC aggregates [2] (SU5402 (10 μM) following BMP/SB-LDN treatment), the epithelial thickening result is “abolishes epithelial thickening”.
In the case of `Oc1nc(-c2ccc(C(F)(F)F)cc2)nc2c1CSCC2` [XAV939], in the assay on ESC aggregates [1] (XAV939 (1 μM) from day 8-10, vesicles counted on day 12), the “number of prosensory vesicles” value is reported as “significantly decreased; also recorded: decreases”. Also, the “prevalence of Pax2+ vesicles” value in the assay on ESC aggregates [1] (XAV939 from day 8-10) is “reduced”. Further, the “generation of otic vesicles following BMP/SB-FGF/LDN treatment” value in the assay on ESC aggregates [1] (XAV939 on days 8-10) is on record as “blocked”.
“FGF: recombinant human FGF2 (25 ng/mL; Peprotech)”: in the assay on ESC aggregates [1] (qPCR, n=4, 25, 50 and 100 ng/mL not significantly different), the “Pax8 expression versus FGF dosage” value is “dependent on FGF dosage”.

B1: BMP4: recombinant human BMP4 (bone morphogenetic protein), 10 ng/mL; Stemgent (protein, UniProt P12644 293-408, looked up)
Bone morphogenetic protein 4: SPKHHSQRARKKNKNCRRHSLYVDFSDVGWNDWIVAPPGYQAFYCHGDCPFPLADHLNSTNHAIVQTLVNSVNSSIPKACCVPTELSAISMLYLDEYDKVVLKNYQEMVVEGCGCR
For the molecule B1, the “brachyury+ cells in aggregates” value in the assay with ESC aggregates [3] (day 5, BMP-treated aggregates) was determined as 60.8±3.9%. For the same molecule, in the assay on ESC aggregates [3] (setting [4]), the “neuroectoderm marker Sox1 expression” value is recorded as “downregulated” and the “non-neural ectoderm marker Dlx3 expression” value is listed as “upregulated”.
